Results on three compounds are retold here after patent publication US4327114A, “Substituted 1,8-dihydroxy-9-(10H)anthracenones” (Boehringer Ingelheim GmbH, priority 1980, dated 1982).

Entries after “also recorded” stand apart in the source; their conditions may differ. A value given as a limit tells only on which side of the number the result lay.

Data set [1] can be described thus: Solubility remark. It is filed as physicochemical.
A short description of data set [2]: Acute toxicity in the mouse. The class given is in vivo. Conditions: in vivo, within 14 days. The protocol: (§1) The acute toxicity was determined in the mouse and in the rat. Determined was the LD50, i.e. the dose after administration of which 50% of the animals died within 14 days, or it was determined how many of the 10 treated animals died within the period of observation.

The subject of data set [3] is mouse. Description: Acute toxicity in the mouse. The class given is in vivo. Conditions: 2000 mg/kg. The protocol: as §1
Data set [4] in a line: Acute toxicity in the rat. It is filed as in vivo. Conditions: in vivo, ip, within 14 days. The protocol:
as §1

For data set [5], the system named is rat. Description: Acute toxicity in the rat. The class given is in vivo. The protocol: as §1
For data set [6], the system named is skin of guinea pigs. Description: Skin compatibility test on guinea pigs. The class given is in vivo, guinea pig (Perbright White strain). Particulars: for Sum of the reactions divided by the number of animals: score 0 no irritation to 3 very strong erythema. The protocol: Guinea pigs of the Perbright White strain, with a body weight of about 350 gm, were fed with standard guinea pig feed (Altromin 3022) and water ad lib.
During the test, the animals were kept in single cages. The test substances, which were dissolved in a well compatible solvent, were applied to the skin of the animals (diameter of the test area 3.5 cm) daily for 3 weeks, from Monday to Friday. The animals were shaved each Monday, Wednesday and Friday in the early morning, the treatment with the test substances was performed in the early afternoon. Immediately before administration of the substance, the skin reaction was tested. The evaluation was carried out visually, and erythema, edema, and mycosis of the skin were considered.
The following evaluation was made:
2: strong erythema with beginning edema
3: very strong erythema with edema or beginning necrosis.
The numerical sum of the reactions was used for the total evaluation of a group of animals.

The subject of data set [7] is guinea pigs. Description: Sensitizing activity on guinea pigs. It is filed as in vivo, guinea pig (Perbright White strain). The protocol:
The sensitizing activity was tested 2 weeks after the skin compatibility test with 1:10 to 1:50 of the originally used concentrations behind the ears.

Data set [8] concerns skin (forearms of volunteer human test subjects). Description: Orienting skin compatibility in humans (ointments on forearm). The class given is in vivo. Conditions: for discoloration of the skin / skin irritation: 0.44% ointment, 16 hours, doubled to 0.88% after 3 days if no reaction. The protocol: Ointments, each containing individually 0.44% of compounds […] and K were applied to the forearms of volunteer human test subjects, covered with bandage gauze and allowed to remain on the skin for 16 hours. After 16 hours the ointments were washed off with soap solution, and the skin irritation and discoloration, if any, were evaluated visually and photographed. Then, the test ointments were again administered and allowed to remain on the skin until the next day. Again, the reactions were evaluated and a new treatment was started.

For data set [9], the system named is skin. Description: Skin compatibility under occlusion, method of Mustakallio. Particulars: for concentrations producing discoloration and skin irritations: white vaseline. The class given is in vivo. The protocol: In a further test, according to the method of Mustakallio, compound A was applied at concentrations of 1, 2, 4, 8, 16, 32 mmols in white vaseline and allowed to remain on the skin for 4 hours under occlusion. Compounds C and K, however, were applied at concentrations of 4, 8, 16, 32, 64, 128 mmols, also in white vaseline, and allowed to remain on the skin for 16 hours under occlusion. […] This means that the novel compounds are more compatible by a factor of at least 64.

Data set [10] can be described thus: Penetration and metabolization in the skin in vitro. The class given is in vitro ADME, pig. Conditions: thin-layer chromatography; for penetration into the layers of the skin: same carriers.
The nature of data set [11]: Stability under light irradiation. The class given is physicochemical. Conditions: for decomposition under light: 30 minutes, 400 W high-pressure mercury vapor lamp, in toluene or xylene. The protocol:
Compound C and dithranol (A) in solution (toluene or xylene) were exposed for 30 minutes to a 400 W high-pressure mercury vapor lamp (Type HPM 12, Phillips), where the spectrum of light emission was changed by adding heavy metal salts.

Data set [12] deals with psoriasis. Particulars: literature or prior use; cited from earlier work.
The test system of data set [13] is skin. Conditions: literature or prior use; listed as dithranol; cited from earlier work.
The conditions of data set [14]: prior use; cited from earlier work.
For data set [15], the target named is glucose-6-phosphate-dihydrogenase. Briefly: Inhibition of glucose-6-phosphate-dihydrogenase after 120 minutes incubation. The class given is biochemical. Conditions: 37° C., pH 7.6, REED and MUENCH. The protocol:
The inhibiting effect upon enzymes was determined by measurement of the inhibition of glucose-6-phosphate-dihydrogenase.
The following equilibrium was observed: [drawing 5] (NADP-nicotinamide-adenine-dinucleotide-phosphate). The rate of formation of NADPH is a measure of the enzyme activity; it can be measured by means of the increase in extinction at […] per unit of time.
0.025 ml of glucose-6-phosphate-dihydrogenase were diluted to 10 ml with distilled water (Solution I). 100 mg of nicotinamide-adenine-dinucleotide-phosphate were dissolved in 13 ml of distilled water (Solution II). 47.2 mg of glucose-6-phosphate were dissolved in another 10 ml of distilled water (Solution III). Besides this, a buffer solution (Solution IV) was prepared as follows:
0.28 gm of triethanolamine hydrochloride and 1.461 gm of ethylene-diamine tetraacetic acid disodium salt were dissolved in 1 liter of distilled water, and the solution was adjusted to pH 7.6 with sodium hydroxide. The substance to be tested was dissolved in dimethyl formamide or ethanol (Solution V). Tested end-concentrations: 25, 12.5, 6.25, 3.125, 1.56 and 0.78 μg/ml.
A mixture of 0.1 ml of Solution I, 0.1 ml of Solution II, 2.67 ml of Solution IV and 0.03 ml of Solution V was kept at 37° C. for 120 minutes. After addition of 0.1 ml of Solution III and thorough mixing, the change in extinction was measured photometrically at 366 nm over 3 minutes. The inhibition values were calculated from the average values of 3 measurements (as change of extinction per minute), compared to controls to which the pure solvent was added as inhibitor solution. The ED50 was calculated according to the method of REED and MUENCH from the inhibiting values of the different concentrations. The following table contains the values thus determined: […]

Data set [16] is described as follows: Natural color of the substance (UV-absorption, FIG. 1). Conditions: shortwave portion of visible light, beginning at 380 nm. The class given is physicochemical. An excerpt: Topically administrable substances which are colored are undesirable for cosmetic reasons and also because the lingerie may become soiled. […] This is also expressed by the optic impression of the preparations. […] This is a further advantage compared with dithranol.

Data set [17] relates to guinea pig. Description: Photo-sensitization in vivo on the guinea pig. Particulars: 0.01% alcoholic solution, 3 weeks, 125 W mercury high-pressure lamp 10 minutes. The protocol:
Since some halogenated aromatic substances have a photo-sensitizing activity, the photo-sensitization of compound C was also tested in vivo on the guinea pig.
Guinea pigs were treated for 3 weeks on 5 week-days with a 0.01% alcoholic solution of compound C. After 30 minutes each animal was exposed for 10 minutes to a 125 W mercury high-pressure lamp (ultra violet sun lamp). The irradiation was carried out in such a way that no UV-B erythema appeared.

For orientation: LD50 means the dose at which mortality reaches 50%. Higher therefore signals a less toxic substance.

As for `CC(C)(C)c1cc(Br)c(O)c2c1Cc1c(Br)cc(Br)c(O)c1C2=O`, the solubility result in data set [1] is listed as “inadequate solubility”.

Turning to `O=C1c2c(O)cccc2Cc2cccc(O)c21` [Compound A, 1,8-Dihydroxy-9-(10H)anthracenone], the values for the LD50 at 336 h in data set [2] (ip), in [2] (sc.) and in data set [4] were 2.42 mg/kg, 2.22 mg/kg and 5.19 mg/kg, respectively. For the same compound, the “Number of dead animals” value in data set [3] (p.o.) is 2/10; in data set [5] (p.o., 2000 mg/kg), 1/10; in data set [5] (sc., 1000 mg/kg), 2/10. For the same compound, the “Sum of the reactions divided by the number of animals” value in data set [6] (0.015%, end of 1st week) was found to be 0.66; in [6] (0.015%, end of 2nd week), 0.33; in data set [6] (0.015%, end of 3rd week) it was 0.33; in data set [6] (0.03%, end of 1st week), 1.3; in [6] (0.03%, end of 2nd week), 2.16; in data set [6] (0.03%, end of 3rd week), 2.25. Moreover, the sensitized animals in [7] (0.03%, tested 2 weeks after skin compatibility test) is 3 out of 12. In addition, the “discoloration of the skin” value in data set [8] was “brownish-violet discoloration after only the second application”. Also, the skin irritation result in [8] is recorded as “strong skin irritation with erythema”. In [8] (ointment test), the “later changes of the treated skin area” value is reported as “peeled after about one week”. Besides, the results for the “concentrations producing discoloration and skin irritations” value in data set [9] (4 hours of occlusion) and in data set [9] (16 hours of occlusion) were not below 2 mmols and not below 1 mmols, respectively. Moreover, in data set [10], the “penetration into the layers of the skin” value is given as “penetrate to an approximately equal extent”. Besides, in [10], the “metabolization in the skin” value was “metabolized in a similar manner”. In addition, the decomposition under light entry in [11] is recorded as “nearly completely decomposed”. Also, the antipsoriatic activity entry in data set [12] is on record as “reliable activity”. For the same compound, the “skin irritation and/or discoloration” value in [13] was “strong, irreversible discoloration of skin and lingerie; also recorded: strong skin-irritating activity”. Further, in data set [14], the systemic side-effects result is “lack of systemic side-effects”.

Take `O=C1c2c(O)ccc(Cl)c2Cc2c(Cl)ccc(O)c21` [Compound C, 4,5-Dichloro-1,8-dihydroxy-9-(10H)anthracenone]: the “ED50, inhibition of incubation after 120 minutes” value in data set [15] amounted to 4.63 µg/mL. In addition, the “Number of dead animals” value is given as 1/10 in [3] (i.p.); 0/10 in [3] (p.o.); 6/10 in [3] (sc.); 0/10 in [5] (i.p., 2000 mg/kg); 0/10 in [5] (p.o., 2000 mg/kg); 0/10 in [5] (sc., 2000 mg/kg). Besides, the “Sum of the reactions divided by the number of animals” value amounted to 0 in data set [6] (0.03%, end of 1st week); 0 in [6] (0.03%, end of 2nd week); 0.04 in data set [6] (0.03%, end of 3rd week); 0.166 in data set [6] (0.045%, end of 1st week); 0.66 in [6] (0.045%, end of 2nd week); 0.41 in [6] (0.045%, end of 3rd week). In data set [6] (Table 3), the “skin compatibility compared with compound A” value is “considerably more skin-compatible than compound A”. Moreover, the “sensitization” value in data set [7] (1:10 to 1:50 of the original concentrations, behind the ears) is “no sensitization”. The “discoloration of the skin” value in data set [8] is on record as “no skin irritation or discoloration of the skin”. Besides, the skin irritation entry in data set [8] is recorded as “no skin irritation”. Further, the “skin irritations or discolorations” value in [9] (4 to 128 mmols in white vaseline, after 4 and after 16 hours of occlusion) was “no skin irritations or discolorations could be observed”. In data set [10], the “penetration into the layers of the skin” value is “penetrate to an approximately equal extent”. The “metabolization in the skin” value in data set [10] is reported as “metabolized in a similar manner”. Moreover, in data set [16], the “UV-absorption / yellow color” value was “significantly less UV-absorption”. For the same compound, the decomposition under light entry in [11] was “no decomposition could be determined”. Besides, the “chlorination of toluene (radical formation)” value in data set [11] (gas-chromatographic, sensitivity 0.0001%) is “no chlorination of toluene could be found”. Also, the photo-sensitizing activity entry in [17] is “No photo-sensitizing activity could be determined”.
